Laboratory results: patent publication US20260109707A1, “HETEROBIFUNCTIONAL COMPOUNDS AND METHODS OF TREATING DISEASE” (Halda Therapeutics OpCo. Inc., priority 2022, published 2026)
Read-outs that look alike come from different tables or passages of the source.

What was measured:
[1] = system: T-Rex 293 cell line SC3 cells having increased expression of androgen receptor protein due to exposure to doxycycline; experiment: Cellular growth inhibition assay, T-Rex 293 SC3 cells with doxycycline (CellTiter-Glo, 72 hours); assay type: cell-based; conditions: T-Rex 293 SC3 cells with increased androgen receptor expression due to doxycycline (10 ng/mL)
Summary of the method: (§1)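 Doxycycline (10 ng/mL) was either included or omitted to toggle wild-type androgen receptor expression in SC3 cells, a T-Rex 293 clone, grown in stripped-serum, phenol red-free medium. After 72 hours with compound, viable cells were quantified by CellTiter-Glo 2.0.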

[2] = system: T-Rex 293 cell line SC3 cells lacking increased expression of androgen receptor protein; experiment: Cellular growth inhibition assay, T-Rex 293 SC3 cells without doxycycline (CellTiter-Glo, 72 hours); assay type: cell-based; conditions: T-Rex 293 cell line SC3 cells not exposed to doxycycline (lacking increased androgen receptor expression)
Summary of the method: as §1

[3] = system: VCaP cells; experiment: Cellular growth inhibition assay for VCaP cells (CellTiter-Glo, 72 hours); assay type: cell-based, human
Summary of the method: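 Luminescent viability signal after 72 h of compound exposure gave GI50 values by four-parameter nonlinear regression. Compounds were added in 0.5% DMSO to cells plated 24 h earlier at 5000/well in DMEM containing 10% FBS.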

Compound	GI50 [1]	GI50 ([2]; 72 h)	GI50 [3]	GI50 [2]	GI50 ([3]; Homo sapiens, VCaP, 72 h)	GI50 ([1]; 72 h)
Cc1sc2c(c1C)C(c1ccc(N3CCC4(CCCN(c5ccc(C(=O)N[C@H]6CC[C@H](Oc7ccc(C#N)c(Cl)c7)CC6)nn5)C4)CC3)cc1)=NC(C(F)(F)F)c1nnc(C)n1-2 (stereo partly drawn) [I-721]	< 500 nM	> 3000 nM	< 500 nM			
Cc1sc2c(c1C)C(c1ccc(N3CCC4(CCCN(c5ccc(C(=O)N[C@H]6CC[C@H](Oc7ccc(C#N)c(Cl)c7)CC6)nn5)C4)CC3)cc1)=NC(C(F)(F)F)c1nnc(C)n1-2 (stereo partly drawn) [I-722]	> 3000 nM		> 3000 nM	> 3000 nM		
Cc1sc2c(c1C)C(c1ccc(C#CC3CC4(C3)CN(c3ccc(C(=O)N[C@H]5CC[C@H](Oc6ccc(C#N)c(Cl)c6)CC5)nn3)C4)cc1)=NC(C(F)(F)F)c1nnc(C)n1-2 (stereo partly drawn) [I-723]	> 3000 nM			> 3000 nM	< 500 nM	
Cc1sc2c(c1C)C(c1ccc(N3CC4(CC(Cc5ccc(C(=O)N[C@H]6CC[C@H](Oc7ccc(C#N)c(Cl)c7)CC6)nn5)C4)C3)cc1)=NC(C(F)(F)F)c1nnc(C)n1-2 (stereo partly drawn) [I-724]	> 3000 nM	> 3000 nM			< 500 nM	
Cc1sc2c(c1C)C(c1ccc(N3CC4(CC(Cc5ccc(C(=O)N[C@H]6CC[C@H](Oc7ccc(C#N)c(Cl)c7)CC6)nn5)C4)C3)cc1)=NC(C(F)(F)F)c1nnc(C)n1-2 (stereo partly drawn) [I-725]	< 500 nM		< 500 nM	> 3000 nM		
Cc1sc2c(c1C)C(c1ccc(N3CCC4(CCN(c5ccc(C(=O)N[C@H]6CC[C@H](Oc7ccc(C#N)c(Cl)c7)CC6)nn5)CC4)C3)cc1)=NC(C(F)(F)F)c1nnc(C)n1-2 (stereo partly drawn) [I-726]	< 500 nM	> 3000 nM			< 500 nM	
Cc1sc2c(c1C)C(c1ccc(N3CCC4(CCN(c5ccc(C(=O)N[C@H]6CC[C@H](Oc7ccc(C#N)c(Cl)c7)CC6)nn5)CC4)C3)cc1)=NC(C(F)(F)F)c1nnc(C)n1-2 (stereo partly drawn) [I-727]	> 3000 nM		< 500 nM	> 3000 nM		
Cc1sc2c(c1C)C(c1ccc(CC3CC4(CCN(c5ccc(C(=O)N[C@H]6CC[C@H](Oc7ccc(C#N)c(Cl)c7)CC6)nn5)CC4)C3)cc1)=NC(C(F)(F)F)c1nnc(C)n1-2 (stereo partly drawn) [I-728]	> 3000 nM	> 3000 nM	> 3000 nM			
Cc1sc2c(c1C)C(c1ccc(CC3CC4(CCN(c5ccc(C(=O)N[C@H]6CC[C@H](Oc7ccc(C#N)c(Cl)c7)CC6)nn5)CC4)C3)cc1)=NC(C(F)(F)F)c1nnc(C)n1-2 (stereo partly drawn) [I-729]	< 500 nM		< 500 nM	> 3000 nM		
Cc1sc2c(c1C)C(c1ccc(N3C4CCCC3CC3(CCN(c5ccc(C(=O)N[C@H]6CC[C@H](Oc7ccc(C#N)c(Cl)c7)CC6)nn5)C3)C4)cc1)=N[C@@H](C)c1nnc(C)n1-2 (stereo partly drawn) [I-730]	< 500 nM			> 3000 nM	< 500 nM	
Cc1sc2c(c1C)C(c1ccc(N3CCC4(CCN(c5ccc(C(=O)N[C@H]6CC[C@H](Oc7ccc(C#N)c(Cl)c7)CC6)nn5)C4)C3)c(F)c1)=N[C@@H](C)c1nnc(C)n1-2 (stereo partly drawn) [I-731]		< 500 nM	500 to 1500 nM			< 500 nM
Cc1sc2c(c1C)C(c1ccc(N3CCC4(CCN(c5ccc(C(=O)N[C@H]6CC[C@H](Oc7ccc(C#N)c(Cl)c7)CC6)nn5)C4)C3)cc1F)=N[C@@H](C)c1nnc(C)n1-2 (stereo partly drawn) [I-732]		< 500 nM	< 500 nM			< 500 nM
Cc1sc2c(c1C)C(c1ccc(OC3CCC4(CCN(c5ccc(C(=O)N[C@H]6CC[C@H](Oc7ccc(C#N)c(Cl)c7)CC6)nn5)C4)C3)cc1)=N[C@@H](C)c1nnc(C)n1-2 (stereo partly drawn) [I-733]		< 500 nM	< 500 nM			< 500 nM
Cc1sc2c(c1C)C(c1ccc(OC3CCC4(CCN(c5ccc(C(=O)N[C@H]6CC[C@H](Oc7ccc(C#N)c(Cl)c7)CC6)nn5)C4)C3)cc1)=N[C@@H](C)c1nnc(C)n1-2 (stereo partly drawn) [I-734]	< 500 nM		< 500 nM	< 500 nM		
Cc1sc2c(c1C)C(c1ccc(N3CCC4(CCN(c5ccc(C(=O)N[C@H]6CC[C@H](Oc7ccc(C#N)c(Cl)c7)CC6)nn5)C4)CC3)c(F)c1)=N[C@@H](C)c1nnc(C)n1-2 [I-735]	< 500 nM		< 500 nM	< 500 nM		
Cc1sc2c(c1C)C(c1ccccc1N1CCC3(CCCN(c4ccc(C(=O)N[C@H]5CC[C@H](Oc6ccc(C#N)c(Cl)c6)CC5)nn4)C3)CC1)=N[C@@H](C)c1nnc(C)n1-2 [I-737]		< 500 nM			500 to 1500 nM	< 500 nM

Compound	GI50 [1]	GI50 ([2]; 72 h)	GI50 [3]	GI50 [2]	GI50 ([3]; Homo sapiens, VCaP, 72 h)	GI50 ([1]; 72 h)
Cc1sc2c(c1C)C(c1ccc(C3CCC4(CCN(c5ccc(C(=O)N[C@H]6CC[C@H](Oc7ccc(C#N)c(Cl)c7)CC6)nn5)CC4)C3)nc1)=NC1(CC1)c1nnc(C)n1-2 (stereo partly drawn) [I-738]	< 500 nM		< 500 nM	> 3000 nM		
Cc1sc2c(c1C)C(c1ccc(C3CCC4(CCN(c5ccc(C(=O)N[C@H]6CC[C@H](Oc7ccc(C#N)c(Cl)c7)CC6)nn5)CC4)C3)nc1)=NC1(CC1)c1nnc(C)n1-2 (stereo partly drawn) [I-739]	< 500 nM		< 500 nM	500 to 1500 nM		
Cc1sc2c(c1C)C(c1ccc(C#CC3CC4(C3)CN(c3ccc(C(=O)N[C@H]5CC[C@H](Oc6ccc(C#N)c(Cl)c6)CC5)nn3)C4)cc1)=NC(C(F)(F)F)c1nnc(C)n1-2 (stereo partly drawn) [I-741]	< 500 nM	> 3000 nM	< 500 nM			
Cc1sc2c(c1C)C(c1ccc(C3CCC4(CC3)CCN(c3ccc(C(=O)N[C@H]5CC[C@H](Oc6ccc(C#N)c(Cl)c6)CC5)nn3)CC4)nc1)=N[C@@H](C)c1nnc(C)n1-2 [I-744]	< 500 nM		< 500 nM	500 to 1500 nM		
Cc1sc2c(c1C)C(c1ccc(N3CCC4(CCN(c5ccc(C(=O)N[C@H]6CC[C@H](Oc7ccc(C#N)c(Cl)c7)CC6)nn5)C4)C3)c(F)c1)=N[C@@H](C)c1nnc(C)n1-2 (stereo partly drawn) [I-745]	< 500 nM			< 500 nM	< 500 nM	
Cc1sc2c(c1C)C(c1ccc(N3CCC4(CCN(c5ccc(C(=O)N[C@H]6CC[C@H](Oc7ccc(C#N)c(Cl)c7)CC6)nn5)C4)C3)cc1F)=N[C@@H](C)c1nnc(C)n1-2 (stereo partly drawn) [I-746]	< 500 nM			500 to 1500 nM	< 500 nM	
Cc1sc2c(c1C)C(c1cccc(OC3CCC4(CC3)CCN(c3ccc(C(=O)N[C@H]5CC[C@H](Oc6ccc(C#N)c(Cl)c6)CC5)nn3)C4)c1)=N[C@@H](C)c1nnc(C)n1-2 (stereo partly drawn) [I-747]			< 500 nM	< 500 nM		< 500 nM
Cc1sc2c(c1C)C(c1cccc(OC3CCC4(CCN(c5ccc(C(=O)N[C@H]6CC[C@H](Oc7ccc(C#N)c(Cl)c7)CC6)nn5)C4)C3)c1)=N[C@@H](C)c1nnc(C)n1-2 (stereo partly drawn) [I-748]		< 500 nM			< 500 nM	< 500 nM
Cc1sc2c(c1C)C(c1cccc(OC3CCC4(CCN(c5ccc(C(=O)N[C@H]6CC[C@H](Oc7ccc(C#N)c(Cl)c7)CC6)nn5)C4)C3)c1)=N[C@@H](C)c1nnc(C)n1-2 (stereo partly drawn) [I-749]	< 500 nM		< 500 nM	500 to 1500 nM		
Cc1sc2c(c1C)C(c1cccc(OC3CCC4(CCN(c5ccc(C(=O)N[C@H]6CC[C@H](Oc7ccc(C#N)c(Cl)c7)CC6)nn5)C4)C3)c1)=N[C@@H](C)c1nnc(C)n1-2 (stereo partly drawn) [I-750]	< 500 nM		< 500 nM	< 500 nM		
Cc1sc2c(c1C)C(c1ccccc1N1CC3(CCN(c4ccc(C(=O)N[C@H]5CC[C@H](Oc6ccc(C#N)c(Cl)c6)CC5)nn4)CC3)C1)=N[C@@H](C)c1nnc(C)n1-2 [I-751]		< 500 nM			< 500 nM	< 500 nM
Cc1sc2c(c1C)C(c1ccccc1OC1CCC3(CC1)CCN(c1ccc(C(=O)N[C@H]4CC[C@H](Oc5ccc(C#N)c(Cl)c5)CC4)nn1)C3)=N[C@@H](C)c1nnc(C)n1-2 (stereo partly drawn) [I-752]		< 500 nM			< 500 nM	< 500 nM
Cc1sc2c(c1C)C(c1ccccc1OC1CCC3(CC1)CCN(c1ccc(C(=O)N[C@H]4CC[C@H](Oc5ccc(C#N)c(Cl)c5)CC4)nn1)C3)=N[C@@H](C)c1nnc(C)n1-2 (stereo partly drawn) [I-753]	< 500 nM		< 500 nM	< 500 nM		
Cc1sc2c(c1C)C(c1ccccc1CC1CC3(CCCN(c4ccc(C(=O)N[C@H]5CC[C@H](Oc6ccc(C#N)c(Cl)c6)CC5)nn4)C3)C1)=N[C@@H](C)c1nnc(C)n1-2 (stereo partly drawn) [I-754]		> 3000 nM			> 3000 nM	> 3000 nM
Cc1sc2c(c1C)C(c1ccccc1CC1CC3(CCCN(c4ccc(C(=O)N[C@H]5CC[C@H](Oc6ccc(C#N)c(Cl)c6)CC5)nn4)C3)C1)=N[C@@H](C)c1nnc(C)n1-2 (stereo partly drawn) [I-755]	> 3000 nM		1500 to 3000 nM	> 3000 nM		
